Legend:
[1] = system: FaDu cells; experiment: SRB test, FaDu; type: cell-based, human; conditions: 1 or 10 μmol·L−1, 24 h
Experimental: (§1) The SRB assay is used to evaluate growth effects on cells, and measures the total protein content. In this test, 5,000 cells are seeded in a cup of a 96-well plate. Upon a 24 h-attachment period, cells are treated with a certain amount of the test molecule (dissolved in DMSO). After a pre-chosen incubation time, cells are fixed with 50 μL of 50% trichloroacetic acid (2° C., 1 h). Afterward, the plate is rinsed five times with tap water, and air dried overnight.
(§2) Next, proteins are stained with 75 μL of a 0.4% solution of SRB in AcOH (30 min). Unbound SRB is subsequently removed by washing with a 1% solution of glacial AcOH, whereupon the plate is air dried. Then, bound SRB is redissolved in 100 μL of a 10 mmol·L^−1 tris(hydroxymethyl)aminomethane (Tris) buffer (pH=10.5), after which optical density is determined at 490 nm with a spectrophotometer.
(§3) In order to verify whether the antiproliferative effects of compound 49, witnessed in BLM and MCF-7/6 cells at high concentrations, were cell specific, additional SRB and MTT assays on a further five cell lines (HCT8-E11, TR146, FaDu, 3T3-L1 and CT5.3) were conducted (FIG. 8). The results for MCF-7/6 cells were added to facilitate comparison.
(§4) The CT5.3 cell line consists of human myofibroblasts which were isolated from a colon tumor (Van Hoorde et al., 1999). […]

[2] = system: CT5.3 myofibroblasts; experiment: SRB test, CT5.3; type: cell-based, human; conditions: 10 μmol·L−1, 24 h, decreasing trend, not significant
Experimental: as §1, §2, §3, §4

[3] = system: BLM melanoma cells; experiment: SRB test, BLM; type: cell-based
Experimental: as §1, §2
As 4-fluoro-3′,4′,5′-trimethoxychalcone had exerted an anti-invasive activity on BLM melanoma cells in the Matrigel invasion assay, we were intrigued to verify how its effect on the viability of BLM cells would compare to that observed for the MCF-7 cell lines.

[4] = system: MCF-7/6 mammary carcinoma cells; experiment: chick heart invasion assay; type: cell-based, human; design: unit not given here
Source text: “Anti-invasive” or “anti-invasive activity” is the ability to inhibit the invasiveness of tumor cells. Invasion by tumor cells is defined as the progressive occupation and destruction of their environment, and is the result of matrix degradation and directional cell motility. Anti-invasive activity of a compound is the ability to inhibit or block invasion, and can be assessed by counting the number of invading cells, by the depth of their invasion and/or by the amount of environmental destruction. Many assays in vitro can be applied to test for anti-invasive activity (for a complete list see Bracke et al. 2008). The three most popular ones are: • Chick heart invasion assay (Bracke et al., 2001, see details below). The cut-off value is between grade II (non-invasive) and grade III (invasive). […] Collagen gels, prepared on the bottom of plastic wells are covered with a test cell suspension, and incubated with liquid culture medium for 24 h. Invasion is evaluated with an inverted phase-contrast microscope, and is based on the percentage of cells showing extensions in the gel. […] Matrigel is a mixture of basement membrane components, and is applied as a semi-solid layer on top a filter with pores allowing the transgression of cells. The test cell suspension is seeded on top of the gel, and incubated for 1 day in a two-compartment chamber system. Invasion is then evaluated via the percentage of cells that are attached to the lower side of the filter.
In the chick heart invasion assay cancer cells are confronted with a fragment of normal tissue, so as not to neglect the contribution of the host tissue in the micro-ecosystem that governs tumor behavior. As such, precultured heart tissue fragments (PHFs), dissected from 9-day-old chicken embryos, may be confronted with aggregates of human invasive MCF-7/6 mammary carcinoma cells in the presence of a certain concentration of a test compound. After eight days, the interaction between the cancer cells and the PHF is evaluated histologically and classified along a 5-grades subjective scale (Bracke et al., 2001). Grades III and IV are typical for invasion, while grades 0, I and II correspond to absence of invasion. Compounds that inhibit invasion of confronting cancer cells i.e. from III/IV to 0/I/II, are determined as anti-invasive. Possible alternative assays generally known in the art are the type I collagen invasion assay, wound healing assay and the matrigel invasion assay.
“Anti-invasive” refers to the ability to inhibit invasion of the tumor or cancer cell into surrounding tissue (within or outside the organ of origin). […] This screening method confronts cancer cells with a fragment of normal tissue, so as not to neglect the contribution of the host tissue in the micro-ecosystem that governs tumor behavior. The interaction between the cancer cells and the normal tissue is evaluated histologically and classified along a 5-grades subjective scale. Grades III and IV are typical for invasion, while grades 0, I and II correspond to absence of invasion. Compounds that inhibit invasion of confronting cancer cells i.e. from III/IV to 0/I/II, are determined as anti-invasive. Possible alternative assays generally known in the art are the type I collagen invasion assay and the Matrigel invasion assay.
The potency of these molecules had been evaluated by means of the chick heart invasion assay, as described herein before.

[5] = system: TR146 cells; experiment: MTT test, TR146; type: cell-based, human
Experimental: (§5) An MTT test provides an indication of cell viability, proliferation and activity through determination of the mitochondrial conversion of 3-(4,5-dimethylthiazol-2-yl)-2,5-diphenyltetrazolium bromide (MTT), a yellow salt, into formazan, a salt that precipitates under the form of blue crystals.
(§6) In concreto, 5,000 cells are seeded in a cup of a 96 well-plate, treated with the desired amount of the test substance, and incubated for a chosen period of time. Next, 40 μL of a filtered (0.2 μm) 5 mg·mL^−1 solution of MTT in PBS is added to the cup. After 2 h of incubation at 37° C. in the dark, all liquid is removed. The obtained formazan salts are dissolved in 200 μL of DMSO, whereupon optical density is measured at 490 nm.
as §3
(§7) The CT5.3 cell line consists of human myofibroblasts which were isolated from a colon tumor (Van Hoorde et al., 1999). 3T3-L1 cells are murine fibroblasts, originating from embryo's of Swiss mice (Todaro and Green, 1963). HCT8-E11, FaDu and TR146 are human epithelial cancer cell lines. […]

[6] = system: CT5.3 myofibroblasts; experiment: MTT test, CT5.3; type: cell-based, human; conditions: 10 μmol·L−1, 24 h
Experimental: as §5, §6, §3, §7

[7] = system: HCT8-E11 colon carcinoma cells; experiment: SRB test, HCT8-E11; type: cell-based, human
Experimental: as §1, §2, §3, §4

[8] = system: FaDu cells; experiment: MTT test, FaDu; type: cell-based, human
Experimental: as §5, §6, §3, §7

COc1cc(C(=O)/C=C/c2ccc(F)cc2)cc(OC)c1OC [Compound 49, (2E)-3-(4-Fluorophenyl)-1-(3,4,5-trimethoxyphenyl)propenone]
total protein content versus solvent control [1]: no significant differences | change in total protein content [2]: −15% | reduction in total protein content ([3]; 0.1 μmol·L−1, 24 h): no effect was apparent | change in total protein content ([3]; 10 μmol·L−1, 24 h, significant reduction): −20% | reduction in total protein content ([3]; 1 and 10 μmol·L−1, 24 h (p<0.01)): 20% | Actual in vitro activity class ([4]; compounds 37-51, Table 11): −2 (about 0.01) | Actual class ([4]; training set compounds 37-51, class = log cmin, lowest concentration with invasion grade I or II): −2 (about 0.01) | increase in mitochondrial activity ([5]; 1 μmol·L−1, 24 h): 7% | reduction in mitochondrial activity ([5]; 10 μmol·L−1, 24 h): 30% | decrease in mitochondrial activity [6]: 22% | change in total protein content ([7]; 10 μmol·L−1, 24 h, decreasing trend, not significant): −27% | reduction in total protein content ([7]; elevated concentrations 10-100 μmol·L−1, summary): ~50% | mitochondrial activity ([8]; 1 μmol·L−1, 24 h): the same trend, but without significance | reduction in mitochondrial activity ([8]; 10 μmol·L−1, 24 h): 30%

Source: patent US9290427B2, “Anti-invasive compounds” (Universiteit Gent, priority 2012, dated 2016)
